Measurements published in paper PMC6273431, “The Structure–Antimicrobial Activity Relationships of a Promising Class of the Compounds Containing the N-Arylpiperazine Scaffold” (Molecules, 2016).
Like-named read-outs stand apart in the source and are kept apart here.

What was measured:
[1] = parameters: method as in PMID 16209439, PMID 16209439, doi:10.2478/s11696-006-0007-y; conditions: octan-1-ol/phosphate buffer (pH = 7.4); cited from earlier work
[2] = test system: Candida parapsilosis CCM 8260; assay: candidacidal MIC, microdilution method; format: cell-based; conditions: Lodderomyces parapsilosis, CCM8260, 48 h, 37 °C
Experimental: (§1) In order to provide a look into the potential usefulness of the derivatives 5a–l as the candidates for a development of anti-yeast (candidacidal) agents, they were in vitro tested against Candida albicans CCM 8261 (CA 8261), C. krusei CCM 8271 (CK 8271) and C. parapsilosis CCM 8260 (CP 8260). The yeasts were obtained from the Czech Collection of Microorganisms (Masaryk University, Faculty of Science, Brno, Czech Republic). They were grown and kept on Sabouraud agar (Oxoid Limited, Basingstoke, UK).
(§2) For the screening, the microdilution method according to the Antimicrobial Susceptibility Testing Protocols was applied. The inoculum was prepared from the cultures grown on Sabouraud agar. With the sterile solution of NaCl, the inoculum was prepared to the 0.5 McFarland units using the Densi-La-Meter densitometer (LIAP, Riga, Latvia) and diluted a thousand‑fold with the Roswell Park Memorial Institute (RPMI) 1640 medium (Sigma-Aldrich, Darmstadt, Germany). Prepared suspension was used for an inoculation of microtitre plates. Final concentration in wells ranged from 5.0 × 10^2 CFU/mL to 2.5 × 10^3 CFU/mL. […] For the determination of the MICs, the stock solutions of all the tested compounds were diluted in the microtitre checkerboard to the final concentration varying from 128 μg/mL to 0.125 μg/mL. Drug-free control, sterility control and the control consisted of a medium and DMSO alone were included. Inoculated microtitre plates were incubated for 48 h in the darkness at 37 °C in an aerobic atmosphere. The results were estimated against static light.
(§3) The MIC was defined as the lowest concentration of the tested compound at which no visible growth was observed. To ensure reproducibility of the results, each candidacidal MIC assay was performed triplicate on separate occasions. It was important to note that all the MICs from the in vitro antimicrobial screening were expressed in μg/mL units and were available in Tables S3 and S4 (Supplementary Materials).

Candida krusei CCM 8271 = assay: candidacidal MIC, microdilution method; format: cell-based; conditions: Pichia kudriavzevii, CCM8271, 48 h, 37 °C
Experimental: as §1, §2, §3

[3] = test system: Candida albicans CCM 8261; assay: candidacidal MIC, microdilution method; format: cell-based; conditions: Candida albicans, CCM8261, 48 h, 37 °C
Experimental: as §1, §2, §3

M. smegmatis ATCC 700084 = assay: antimycobacterial MIC, broth dilution micromethod; format: cell-based; conditions: Mycolicibacterium smegmatis, ATCC700084, 72 h, 3 days at 37 °C
[4] = parameters: method as in PMID 16209439, PMID 16209439; conditions: potentiometric titration; cited from earlier work
M. kansasii DSM 44162 = assay: antimycobacterial MIC, broth dilution micromethod; format: cell-based; conditions: Mycobacterium kansasii, DSM44162, 168 h, 7 days at 37 °C
M. marinum CAMP 5644 = assay: antimycobacterial MIC, broth dilution micromethod; format: cell-based; conditions: Mycobacterium marinum, CAMP5644, 504 h, 21 days at 28 °C
[5] = test system: Enterococcus faecalis ATCC 29212; assay: antibacterial MIC, microtitration broth method; format: cell-based; conditions: 37 °C
Experimental: (§4) Prior to the testing, each strain was transferred into a nutrient agar (Oxoid Limited, Basingstoke, UK), which was enriched with 5% defibrinated bovine blood.
(§5) The MICs were determined by the microtitration broth method in the cation-adjusted Mueller-Hinton broth (Becton Dickinson, Oxford, UK) according to an international interdisciplinary Clinical Laboratory Standard Institute guidelines.
(§6) The checkerboard was inoculated by the bacterial inocula, which were prepared in a phosphate buffered saline solution with the pH = 7.2–7.3 to simulate physiological pH. The final concentration of each inoculum in the final volume of 100 μL in the wells was approximately 7.5 × 10^6 CFU/mL. Drug-free controls, sterility controls and the controls consisted of the broth with DMSO were included. The determination of the results was performed visually after 24 h of static incubation in the darkness at 37 °C in an aerobic atmosphere.
(§7) To ensure reproducibility, each antibacterial MIC assay was performed triplicate on separate occasions.

[6] = test system: methicillin-resistant Staphylococcus aureus 63718; assay: antibacterial MIC, microtitration broth method; format: cell-based; conditions: MRSA, 37 °C
Experimental: as §4, §5, §6, §7

[7] = test system: Staphylococcus aureus ATCC 29213; assay: antibacterial MIC, microtitration broth method; format: cell-based; conditions: 37 °C
Experimental: as §4, §5, §6, §7

[8] = test system: Escherichia coli ATCC 25922; assay: antibacterial MIC, microtitration broth method; format: cell-based; conditions: 37 °C
Experimental: as §4, §5, §6, §7

[9] = test system: Mycobacterium avium subsp. paratuberculosis CIT03; assay: antimycobacterial MIC, MB broth, alamarBlue; format: cell-based; conditions: 264 h, read-out: MIC MAP
Experimental: The Mycobacterium avium subsp. paratuberculosis CIT03 strain was grown in the Middlebrook (MB) broth, supplemented with the Oleic-Albumin-Dextrose-Catalase Supplement (OADC, Becton Dickinson, Oxford, UK) and the mycobactin J (2 μg/mL). The commercially available siderophore mycobactin J reduced the incubation period of M. avium subsp. paratuberculosis in a complex medium when compared to the medium containing the mycobactin P as a growth factor.
The identification of the isolate was performed using biochemical and molecular protocols. At a log phase growth, a culture sample (10 mL) was centrifuged at 15,000 rpm/20 min using a bench top centrifuge (Model CR 4-12, Jouan Inc., London, UK). Following removal of the supernatant, the pellet was washed in fresh Middlebrook 7H9GC broth and re-suspended in fresh supplemented MB broth (10 mL). The turbidity was adjusted to match the McFarland standard No. 1 containing approximately 3.0 × 10^8 Colony Forming Units (CFU) with the MB broth. Further 1:20 dilution of the culture was performed in the MB broth. The susceptibility of given mycobacterial species was investigated in a 96-well plate format. In those experiments, sterile deionised water (300 μL) was added to all outer-perimeter wells of the plates to minimize an evaporation of the medium in the test wells during the incubation process. Each evaluated compound (100 μL) was incubated with the mycobacterial species (100 μL). The dilutions of a particular compound were prepared in triplicate. For all inspected derivatives, final concentrations ranged from 1000 μg/mL to 60 μg/mL. All compounds were prepared in dimethyl sulfoxide (DMSO; Sigma-Aldrich, Irvine, UK) and subsequent dilutions were made in the supplemented MB broth. The plates were sealed with a parafilm and incubated at 37 °C for 11 days. Following the incubation, a 10% addition of a water‑soluble dye, the alamarBlue reagent (AbD Serotec, Kidlington, UK), was mixed into each well. Absorbance readings at 570 nm and 600 nm were taken, initially for background subtraction and after 24 h re-incubation. The subtraction is necessary for strongly coloured compounds, where the colour may interfere with the interpretation of any colour change. For non-interfering compounds, a blue colour in a well was interpreted as an absence of a growth and a pink colour was scored as a growth.
The minimum inhibitory concentration (MIC) was defined as the lowest concentration of the compound at which no visible bacterial growth was observed. In other words, the MIC was the lowest concentration that prevented a visual colour change from blue to pink. The MIC value has been routinely and widely used in bacterial assays and it has been a standard detection limit according to the Clinical and Laboratory Standards Institute. The clinically used antimycobacterial drugs INH and RIF were applied as the standards.

SMILES | log Pexp [1] | MIC [2] | MIC ([2]; Table S4) | MIC (Candida krusei CCM 8271) | MIC (Candida krusei CCM 8271; Table S4) | MIC [3] | MIC ([3]; Table S4) | MIC (M. smegmatis ATCC 700084) | MIC (M. smegmatis ATCC 700084; Table S3) | pKa [4] | MIC (M. kansasii DSM 44162) | MIC (M. kansasii DSM 44162; Table S3) | MIC (M. marinum CAMP 5644) | MIC (M. marinum CAMP 5644; Table S3) | MIC ([5]; ATCC29212, 24 h) | MIC ([5]; ATCC29212, Table S4, 24 h) | MIC ([6]; 24 h) | MIC ([6]; Table S4, 24 h) | MIC ([9]; 37 °C, 11 days) | MIC [9] | also measured
CCOc1ccccc1NC(=O)OCC(O)CN1CCN(c2cccc(C(F)(F)F)c2)CC1 (centres unmarked) [Compound 5b] | 3.60 | > 254 µM | > 128 µg/mL | > 254 µM | > 128 µg/mL | > 254 µM | > 128 µg/mL | 508 µM | 256 µg/mL | 6.00 | 127 µM | 64 µg/mL | 127 µM | 64 µg/mL | > 508 µM | > 256 µg/mL | > 508 µM | > 256 µg/mL | 1980 µM | 1000 µg/mL | MIC ([7]; ATCC29213, 24 h): > 508 µM; MIC ([7]; ATCC29213, Table S4, 24 h): > 256 µg/mL; MIC ([8]; ATCC25922, 24 h): > 508 µM; MIC ([8]; ATCC25922, Table S4, 24 h): > 256 µg/mL
COc1cccc(NC(=O)OCC(O)CN2CCN(c3cccc(C(F)(F)F)c3)CC2)c1 (centres unmarked) [Compound 5c] | 3.61 | > 261 µM | > 128 µg/mL | > 261 µM | > 128 µg/mL | > 261 µM | > 128 µg/mL | 523 µM | 256 µg/mL | 5.73 | 131 µM | 64 µg/mL | 131 µM | 64 µg/mL | > 523 µM | > 256 µg/mL | > 523 µM | > 256 µg/mL | 1020 µM | 500 µg/mL | MIC ([7]; ATCC29213, 24 h): > 523 µM; MIC ([7]; ATCC29213, Table S4, 24 h): > 256 µg/mL; MIC ([8]; ATCC25922, 24 h): > 523 µM; MIC ([8]; ATCC25922, Table S4, 24 h): > 256 µg/mL
NNC(=O)c1ccncc1 [INH, isoniazid, reference compound] | – | – | – | – | – | – | – | 117 µM | 16.1 µg/mL | – | – | – | 467 µM | 64 µg/mL | – | – | – | – | 1820 µM | 250 µg/mL | –
CO[C@H]1/C=C/O[C@@]2(C)Oc3c(C)c(O)c4c(O)c(c(/C=N/N5CCN(C)CC5)c(O)c4c3C2=O)NC(=O)/C(C)=C\C=C\[C@H](C)[C@H](O)[C@@H](C)[C@@H](O)[C@@H](C)[C@H](OC(C)=O)[C@@H]1C [RIF, rifampicin, reference compound] | – | – | – | – | – | – | – | 19.4 µM | 0.125 µg/mL | – | 0.15 µM | 0.5 µg/mL | 2.43 µM | 0.25 µg/mL | – | – | – | – | 109 µM | 60 µg/mL | –
